Measurements as given in the supplement of paper PMC10290057.
Where a name gives a salt, the structure may show the parent alone.

Test system: HCT116
Experiment: efficacy (fitted maximal change in viability relative to DMSO control); higher = less cytotoxic (negative = loss of viability)
Settings: 48 h
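Further: Luminescence-based viability readout, five doses per compound, normalized against on-plate DMSO and empty-well controls, followed by dose-response curve fitting for every drug.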

In the case of `CC[C@H]1OC(=O)[C@H](C)[C@@H](O[C@H]2C[C@@](C)(OC)[C@@H](O)[C@H](C)O2)[C@H](C)[C@@H](O[C@@H]2O[C@H](C)C[C@H](N(C)C)[C@H]2O)[C@](C)(O)C[C@@H](C)C(=O)[C@H](C)[C@@H](O)[C@]1(C)O` [Erythromycin], the efficacy is reported as 23%.

Molecule `CC1(C)[C@@H](O[C@H]2O[C@H](C(=O)O)[C@@H](O)[C@H](O)[C@H]2O[C@@H]2O[C@H](C(=O)O)[C@@H](O)[C@H](O)[C@H]2O)CC[C@]2(C)[C@H]3C(=O)C=C4[C@@H]5C[C@@](C)(C(=O)O)CC[C@]5(C)CC[C@@]4(C)[C@]3(C)CC[C@@H]12` [Ammonium Glycyrrhizinate] has an efficacy of 7.39%.

`CC(C)C[C@H](CN)CC(=O)O` [Pregabalin] gave an efficacy of -8.5%.

Work on `CCC(=O)NCC[C@@H]1CCc2ccc3c(c21)CCO3` [Ramelteon] yielded an efficacy of -25.2%.

For `NC(=O)[C@@H](CCC(F)(F)F)N(Cc1ccc(-c2ncon2)cc1F)[S+](=O)([O-])c1ccc(Cl)cc1` [Avagacestat], the efficacy was -65.8%.

In the case of `CC(=O)O[C@@]1(CC[C@H]2[C@@H]3\C=C(C)/C4=C/C(=O)CC[C@]4(C)[C@H]3CC[C@]12C)C(C)=O` [Megestrol acetate], the efficacy is reported as -13.4%.

Work on `O=C1\C=C/C=C2/[C@H]3CNC[C@H](C3)CN12` [Cytisine] yielded an efficacy of -21.9%.

For `O=C(Nc1ccc(F)c(C(F)(F)F)c1)Nc1nnc(-c2ccncc2)s1`, the efficacy was -29%.

In the case of `CCc1c(C(=O)C(N)=O)c2c(OCC(=O)O)cccc2n1Cc1ccccc1` [Varespladib], the efficacy is reported as -27.8%.

`C=CC(=O)Nc1cc(N2CCN(CC)CC2)ccc1Nc1cc(N(C)C(=O)Nc2c(Cl)c(OC)cc(OC)c2Cl)ncn1` [H3B-6527] was tested, and the efficacy was -19.6%.

For `CC[C@H](NC(C)C)[C@H](O)C1=CC=C(O)C2=C1\C=C/C(=O)N2` [Procaterol hydrochloride], the efficacy was 6.79%.

With `CCCCOc1ccc(C(=O)Nc2ccc(F)cc2F)cc1` the efficacy was -14.8%.

`NC(=O)c1ccc2[nH]ccc2c1` [SD-169] showed an efficacy of -11.3%.

For `CCCOc1ccn2c(C(C)=O)cc(-c3ccccc3[S+](C)(=O)[O-])c2c1` [GSK-2801], the efficacy was -30.1%.

In the case of `CCOc1ccccc1N/N=C1/C(=O)N(c2nc(-c3ccccc3)cs2)N=C1C` [BAM-7], the efficacy is reported as -7.98%.

In the case of `CC#CC(=O)N1CC[C@@H](n2c(=O)n(-c3ccc(Oc4ccccc4)cc3)c3c(N)ncnc32)C1` [ONO-4059 (GS-4059)], the efficacy is reported as -53.5%.

For `CCOC(=O)[C@H](CCc1ccccc1)N[C@@H](C)C(=O)N1[C@H](C(=O)O)C[C@@H]2CCC[C@@H]21` [Ramipril], the efficacy was -13.7%.

For `Cc1ccccc1C(C(=O)NC1CCCCC1)N(C(=O)CNc1ccc(C#N)cc1)c1cccc(F)c1` (configuration not stated) [IDH-C227], the efficacy was -56.1%.

Work on `CCOc1cc(/C=C2/C(=O)N(c3ccccc3)N=C2C)cc(Cl)c1OCC(=O)OC` yielded an efficacy of -22.5%.

With `C[C@H]1CC[C@H](n2c3cnccc3c3cnc(Nc4ccc5c(n4)CCN(C(=O)CO)C5)nc32)CC1` [AMG-925 (FLX925)] the efficacy was -21.6%.

Molecule `CC(C)(C)C(=O)N1\N=C/C[C@H]1C2=CC=CC=C2` [GSK-963] has an efficacy of -9.61%.

`CC(=O)O[C@@]12CO[C@@H]1C[C@H](O)[C@]3(C)[C@@H]2[C@H](OC(=O)C4=CC=CC=C4)[C@]5(O)C[C@H](O)/C(=C(/[C@@H](O)C3=O)C5(C)C)C` [10-Deacetylbaccatin] gave an efficacy of -50.2%.

For `C[C@@H]1CCN(C(=O)N2CCCC2)C[C@@H]1N(C)c1ncnc2[nH]ccc12`, the efficacy was -8.82%.

With `C[C@@H](C1CC[C@@]2(O)C3=CC(=O)[C@@H]4C[C@@H](O)[C@@H](O)C[C@]4(C)[C@H]3CC[C@]12C)[C@H](O)CCC(C)(C)O` (some centres not stated) [Ecdysone] the efficacy was -17.9%.

`C[S+](=O)([O-])Oc1ccc2c(NC(N)=O)c(C(=O)c3ccc(Cl)cc3Cl)oc2c1` [Lirimilast] was tested, and the efficacy was -17.7%.

`O=C(CCCCCCC(=O)Nc1ccccc1)NO` [Vorinostat (SAHA)] was tested, and the efficacy was -81%.

`COCCOc1ccc(N2CCN(CCn3ncc4c3nc(N)n3nc(-c5ccco5)nc43)CC2)cc1` [Preladenant] gave an efficacy of -16%.
